“Also recorded” adds a separate entry of the source.

In test [1] the test system is resistance arteries. As to the kind of experiment: Ca2+-dependent dilations induced by ACh or NS1619. In kind it is cell-based, hamsters. The source says:
(§1) The care of the animals and the experimental procedures were in accordance with German animal protection laws. The preparation of the vessels and the technique of calcium (fura 2) and diameter measurements were previously described (Bolz et al., 1999, supra; Bolz S S, Fisslthaler B, Pieperhoff S et al., FASEB J. 2000;14:255-260). Briefly, RA (maximal outer diameter 180-250 μm) from gracilis muscle of female hamsters were cannulated with micropipettes and studied at 45 mmHg transmural pressure. Fura 2 was alternatingly excited at 340 or 380 nm. The ratio F340nm/F380nm at 510 nm was calculated after subtraction of the background fluorescence (obtained after fura 2-quenching with 8 mmol/L MnCl2). Diameters were simultaneously recorded by videomicroscopy at wavelengths>610 nm to avoid interference with fura 2-measurements.
(§2) Dilations are expressed as “% of maximum dilation”=[(diaVD−diaNE)/(diamax−diaNE)]×100, with diaVD and diaNE representing steady state diameters 2 min after administration of […] and diamax being the maximal diameter obtained in Ca^2+-free 1 mmol/L EGTA-containing MOPS buffer.

The test system of the next test is MYPT1. In words: Translocation of MLCP myosin-binding subunit MYPT1 (immunofluorescence, western blot). In kind it is cell-based, hamster. The protocol:
(§3) Arteries were fixed with 3.7% formaldehyde, permeabilized with 0.3% Triton X-100, blocked with 1% BSA and incubated with the primary antibody (MLCP: rabbit anti-mouse, 1:200, Covance; RhoA: mouse monoclonal, 1:200, Santa Cruz Biotechnology). FITC-labelled goat anti-rabbit or donkey anti-mouse (1:200, each) were used as secondary antibodies. Images were obtained using a Zeiss LSM410 confocal microscope equipped with a Kr/Ar laser and a 40×/1.2 W water immersion objective.
Tissue samples of hamster aorta were quick-frozen in liquid nitrogen and homogenized. Cytosolic and particulate fractions were separated by centrifugation of the homogenate at 100.000 g (Beckman Coulter, Optima Max-E). Pellets were resuspended in lysis buffer plus 1% Triton-X 100. Protein-matched samples were electrophoresed by SDS-PAGE (7%), transferred to nitrocellulose membranes (Amersham), and subjected to immunostaining using a polyclonal primary antibody (rabbit anti-mouse, 1:500). An HRP-labelled secondary antibody (goat anti-rabbit, 1:10000, Santa Cruz) was used with ECLplus (Amersham) to visualize the signal.

Test [2] deals with resistance arteries. As to the kind of experiment: S1P-induced vasoconstriction of resistance arteries. In kind it is cell-based, hamsters. The following applies: for effect on S1P-induced constrictions: S1P <1 μmol/L.
Text: as §1
The technique to transfect intact C3 transferase protein using Trans LT was previously described (Bolz et al., 2000, supra).
Changes in diameter and [Ca^2+]i were continuously recorded in 70 vessels from 41 animals. All vessels studied developed spontaneous tone (9.6±1% of maximal diameter). The viability of each vessel was assessed by its constriction to NE (0.3 μmol/L) and a dilation>80% in response to 1 μmol/L ACh.

Test [3] relates to isolated resistance arteries. In words: Resting tone in isolated, transfected resistance arteries. In kind it is cell-based, syrian hamsters. Particulars: 10 nmol/L. The source says:
The preparation of the vessels, the technique of calcium and diameter measurements (Bolz, S. S., de Wit, C., Pohl, U. (1999) Br J Pharmacol 128:124-134) as well as the artery culture and transfection method (Bolz, S. S., Pieperhoff, S., de Wit, C. et al. (2000) Am J Physiol Heart Circ Physiol 279:H1434-H1439) were previously described in more detail. […]
After termination of the culture period resistance arteries were washed with MOPS-buffered salt solution and transferred to an inverted microscope. […] In all 116 arteries included in the study, smooth muscle and endothelial function was assessed by testing all resistance arteries for their constrictor response to norepinephrine (NE 0.3 μmol/L) and their dilator response to acetylcholine (ACh, 1 μmol/L). […]
Tone was calculated as % of maximal diameter [tone(% of diamax)=((diamax−diarest)/diamax)×100] that was determined at the end of every experiment in Ca^2+-free solution under stimulation with 1 μmol/L ACh.

In the next test the test system is RhoA. In words: RhoA translocation (immunostaining). It is filed as cell-based, hamsters. The following applies: 10 nmol/L S1P, 2 min. The protocol: as §3
In test [4] the test system is isolated resistance arteries. As to the kind of experiment: Pressure-induced myogenic response (reversal of initial distension), 45 to 110 mmHg. In kind it is cell-based, syrian hamsters. The source says: The preparation of the vessels, the technique of calcium and diameter measurements (Bolz, S. S., de Wit, C., Pohl, U. (1999) Br J Pharmacol 128:124-134) as well as the artery culture and transfection method (Bolz, S. S., Pieperhoff, S., de Wit, C. et al. (2000) Am J Physiol Heart Circ Physiol 279:H1434-H1439) were previously described in more detail. Briefly, segments of small resistance arteries (maximal diameter 213±3 μm, n+116) were excised from the gracilis muscle of female syrian hamsters, cannulated with glass micropipettes and perfused with culture medium at a transmural pressure of 45 mmHg. for selective transfection of smooth muscle cells, 60 μl/mL transfection reagent (Effectene, Qiagen, Germany) and 5 μg of the respective DNA plasmid were added to the organ bath for 20-22 h.
(§4) After termination of the culture period resistance arteries were washed with MOPS-buffered salt solution and transferred to an inverted microscope. Incubation with fura 2 (2 h at 37° C.) from the abluminal side allowed selective determination of smooth muscle Ca^2+ within the vascular wall. Simultaneous measurements of smooth muscle intracellular Ca^2+ and diameter were performed as described previously (Bolz, S. S., de Wit, C., Pohl, U. (1999) supra). In all 116 arteries included in the study, smooth muscle and endothelial function was assessed by testing all resistance arteries for their constrictor response to norepinephrine (NE 0.3 μmol/L) and their dilator response to acetylcholine (ACh, 1 μmol/L). […] Measurements were performed at 37° C.
Myogenic responses were described as % reversal of initial distension (RID) calculated as RID=((diadistended−diatime)/(diadistended−diarest))×100, with diatime being the actual diameter of the artery at a given time point after increase in transmural pressure.
(§5) To compare Ca^2+i and diameter changes over time after application of pressure, a non-linear regression analysis was employed. Briefly, the goodness of the fit to a Gompertz function was calculated for every individual curve at first and then for pooled data sets.

Test [5] has as its system resistance arteries. As to the kind of experiment: SNP (NO)-induced dilations in preconstricted resistance arteries. In kind it is cell-based, hamsters. The following applies: for preconstriction level (diameter): 1 μmol/L S1P or 0.3 μmol/L NE.
Text: as §1
Additionally, dose-response curves for SNP were obtained in arteries preconstricted by 0.3 μmmol/L NE under control conditions, in the presence of the Rho kinase inhibitor Y27632 (1 μmol/L) or in N19RhoA-transfected arteries.
as §2

Test [6] relates to depolarized resistance arteries. In words: Apparent Ca2+-sensitivity of depolarized resistance arteries (120 mmol/L K+, Ca2+ex 0-3 mmol/L). In kind it is cell-based, hamsters. The following applies: for effect on NO (SNP)-induced Ca^2+-desensitization: 10 μmol/L SNP, ODQ 1 μmol/L, calyculin A 120 nmol/L, S1P 10 nmol/L or RhoA^Ala-188 transfection.
Text: as §1
To transfect plasmids containing C3 transferase or the respective mutated RhoA sequences (N19RhoA, RhoA^Ala-188) into VSMCs, arteries were incubated for 18-21 h in a artery culture system (Bolz et al., 2000, supra) with culture medium containing antibiotics, the transfectant Effectene® (16 μl/ml) and 5 μg of the respective plasmid. Unspecific effects of the transfection procedure were assessed by comparing vascular responses of non-transfected RA and arteries transfected with green fluorescent protein (GFP).
The apparent Ca^2+-sensitivity of the arteries was assessed by stepwise increasing the extracellular Ca^2+ concentration (Ca^2+, 0-3 mmol/L) around the arteries kept in depolarizing solution (120 mmol/L K^+). Depolarization-dependent opening of voltage-gated calcium channels allowed increases in Ca^2+ ex to be reproducibly followed by increases in VSMC [Ca^2+]i (Bolz et al., 2000, supra). The Ca^2+-sensitivity was assessed under control conditions, in the presence of SNP and in the combined presence of SNP and the respective modulating substance or protein (ODQ, calyculin A, S1P, RhoA^Ala-188).

A further test has as its system smooth muscle Ca^2+. As to the kind of experiment: Pressure-induced increases in smooth muscle Ca2+ (fura 2). It is filed as cell-based, syrian hamsters. The following applies: inhibition of RhoA/Rho kinase pathway. The protocol: as §4, §5
[7] abbreviates: S1P 0.001 μmol/L plus named inhibitor.
[8] abbreviates: S1P 0.01 μmol/L plus named inhibitor.
Setting [9] is: S1P 0.1 μmol/L plus named inhibitor.
[10] abbreviates: S1P 1 μmol/L plus named inhibitor.

As to charybdotoxin, the “effect on dilations by ACh (+L-NA/indomethacin) and NS1619” value with resistance arteries [1] is “abolished”.
As for `CCCCCCCCCCCCC/C=C/[C@@H](O)[C@@H](N)COP(=O)(O)O` [S1P, sphingosine-1-phosphate], the “translocation of MYPT1 to the smooth muscle cell plasmamembrane” value in the test on MYPT1 (S1P, 2 min) is reported as “induced a translocation”. The “S1P-induced vasoconstriction, Control” value is listed as −0.2 ± 0.4 % of diamax in the test with resistance arteries [2] (S1P 0.001 μmol/L), −7.7 ± 2.4 % of diamax with resistance arteries [2] (S1P 0.01 μmol/L), −27.0 ± 3.4 % of diamax in the test on resistance arteries [2] (S1P 0.1 μmol/L) and −45.0 ± 2.0 % of diamax with resistance arteries [2] (S1P 1 μmol/L). Besides, in test [3], the “constriction induced by S1P itself” value is recorded as “no significant constrictions”. Moreover, the “RhoA localisation after stimulation” value in the test with RhoA is reported as “translocated to the membrane; also recorded: translocation to the membrane”. Further, the “myogenic response with exogenous S1P” value in test [4] (10 nmol/L S1P) was found to be 144±11 % RID. The “preconstriction level (diameter)” value in the test on resistance arteries [5] amounted to 130±10 μm. In the test on resistance arteries [5] (SNP 1 μmol/L, preconstriction 1 μmol/L S1P vs 0.3 μmol/L NE), the “reduction of SNP-induced dilations after preconstriction with S1P vs NE” value is reported as 64±8%. Further, the “effect on NO (SNP)-induced Ca^2+-desensitization” value in [6] was “abolished; also recorded: blocked”. Besides, the “effect of S1P per se on Ca^2+-sensitivity” value in [6] (S1P 10 nmol/L, Ca^2+ex 0.25-0.75 mmol/L) was “increased the Ca^2+-sensitivity only in a medium concentration range”.
As for `C[C@@H](N)[C@H]1CC[C@H](C(=O)Nc2ccncc2)CC1` [Y27632], the “S1P-induced MYPT1 translocation after RhoA/Rho kinase inhibition” value in the test on MYPT1 (N19RhoA-transfected or Y27632 (1 μmol/L)-pretreated arteries) is listed as “absent”. The “S1P-induced vasoconstriction after inhibition of RhoA or Rho kinase” value was 0.1 ± 0.4 % of diamax with resistance arteries [2] (setting [7]), −0.4 ± 0.2 % of diamax in the test with resistance arteries [2] (setting [8]), −3.4 ± 1.8 % of diamax in the test on resistance arteries [2] (setting [9]) and −20.0 ± 7.2 % of diamax in the test on resistance arteries [2] (setting [10]). Also, the “effect on S1P-induced constrictions” value in the test with resistance arteries [2] was “abolished”. Besides, in the test with smooth muscle Ca^2+, the “pressure-induced increases in Ca^2+” value came to 19±3%. Besides, the “S1P-augmented myogenic response after blocker” value in test [4] (10 nmol/L S1P plus Rho kinase inhibitor) is 3±1 % RID. The “myogenic response, reversal of initial distension (RID)” value in test [4] (pressure 45 to 110 mmHg, steady state after 4 min) is on record as 1±2 % RID. Also, the “effect on NO-induced dilations” value in the test on resistance arteries [5] (NE 0.3 μmol/L-preconstricted, Y27632 1 μmol/L or N19RhoA overexpression) is listed as “significantly augmented”. Moreover, the “diameter at NE-induced tone” value in the test with resistance arteries [5] (NE 0.3 μmol/L, Y27632 1 μmol/L) was determined as 115±5 μm. In the test with resistance arteries [5] (Y27632 1 μmol/L), the resting diameter amounted to 195±18 μm.
With C3 transferase, the “S1P-induced vasoconstriction after inhibition of RhoA or Rho kinase” value with resistance arteries [2] (setting [7]) was 0.7 ± 0.3 % of diamax; with resistance arteries [2] (setting [8]), 0.5 ± 0.6 % of diamax; in the test on resistance arteries [2] (setting [9]), −2.8 ± 0.7 % of diamax; with resistance arteries [2] (setting [10]) it was −18.1 ± 2.9 % of diamax. The “effect on S1P-induced constrictions” value with resistance arteries [2] is recorded as “abolished”. Moreover, the “Ca^2+/diameter curve (Ca^2+-sensitivity of the contractile apparatus)” value in [6] (C3 transferase-transfected arteries) was “significantly shifted to the right; also recorded: significantly desensitized”.
For the compound `NC[C@H](O)c1ccc(O)c(O)c1` [NE, Norepinephrine], in the test on resistance arteries [5], the “preconstriction level (diameter)” value was determined as 128±2 μm.
Take `COC[C@@H]([C@H](O)[C@H](O)C(=O)NCC[C@H](C)c1nc(/C=C/C[C@@H]2O[C@]3(C[C@@H](O)[C@@H]2C)O[C@H]([C@H](C[C@H](O)[C@H](C)[C@H](O)[C@H](C)/C=C(C)/C(C)=C/C=C/C(C)=C\C#N)OC)[C@H](OP(=O)(O)O)C3(C)C)co1)N(C)C` [calyculin A]: the results for the “effect on NO (SNP)-induced Ca^2+-desensitization” value in test [6] and in test [6] (listed as Calyculin A) were “reversed” and “almost abolished”, respectively.
As for `O=c1onc2cnc3ccccc3n12` [ODQ], the “effect on NO (SNP)-induced Ca^2+-desensitization” value in [6] was “blocked; also recorded: completely reversed”.

(Values after US20060264362A1, “Method of modulating smooth muscle cell functioning by modulating sphingosine kinase mediated signalling” (Medvet Science Pty. Ltd., priority 2003, published 2006).)
